Data set [1] addresses Epidermal growth factor receptor (Homo sapiens, UniProt P00533). The experiment in a line: Inhibition of wild type EGFR (unknown origin) autophosphorylation preincubated for 30 mins followed by ATP addition measured after 1 hr by kinase-glo luminescence assay.
In data set [2] the target is Epidermal growth factor receptor (Homo sapiens, UniProt P00533, L858R/T790M). The data set is classed as protein assay.
Data set [3] can be described thus: Cytotoxicity against HEK293T assessed as reduction in cell viability by MTT assay. The data set is classed as cell-based, HEK-293T. The note with it: human, HEK293T cells. For orientation: Tetrazolium assays rely on reduction of a dye to a coloured formazan, in cell work by metabolically active cells.
For another data set, the system named is NCI-H358. The experiment in a line: Antiproliferative activity against human NCI-H358 cells assessed as reduction in cell viability after 48 hrs by cck8 assay. It counts as functional, cell-based. Conditions: NCI-H358, 48 h.
In a further data set the test system is A549. The experiment in a line: Antiproliferative activity against human A549 cells assessed as reduction in cell viability after 48 hrs by cck8 assay. It counts as functional, cell-based. The note with it: A549, 48 h.

Sequence of Epidermal growth factor receptor (Homo sapiens, UniProt P00533) (P00533 whole entry): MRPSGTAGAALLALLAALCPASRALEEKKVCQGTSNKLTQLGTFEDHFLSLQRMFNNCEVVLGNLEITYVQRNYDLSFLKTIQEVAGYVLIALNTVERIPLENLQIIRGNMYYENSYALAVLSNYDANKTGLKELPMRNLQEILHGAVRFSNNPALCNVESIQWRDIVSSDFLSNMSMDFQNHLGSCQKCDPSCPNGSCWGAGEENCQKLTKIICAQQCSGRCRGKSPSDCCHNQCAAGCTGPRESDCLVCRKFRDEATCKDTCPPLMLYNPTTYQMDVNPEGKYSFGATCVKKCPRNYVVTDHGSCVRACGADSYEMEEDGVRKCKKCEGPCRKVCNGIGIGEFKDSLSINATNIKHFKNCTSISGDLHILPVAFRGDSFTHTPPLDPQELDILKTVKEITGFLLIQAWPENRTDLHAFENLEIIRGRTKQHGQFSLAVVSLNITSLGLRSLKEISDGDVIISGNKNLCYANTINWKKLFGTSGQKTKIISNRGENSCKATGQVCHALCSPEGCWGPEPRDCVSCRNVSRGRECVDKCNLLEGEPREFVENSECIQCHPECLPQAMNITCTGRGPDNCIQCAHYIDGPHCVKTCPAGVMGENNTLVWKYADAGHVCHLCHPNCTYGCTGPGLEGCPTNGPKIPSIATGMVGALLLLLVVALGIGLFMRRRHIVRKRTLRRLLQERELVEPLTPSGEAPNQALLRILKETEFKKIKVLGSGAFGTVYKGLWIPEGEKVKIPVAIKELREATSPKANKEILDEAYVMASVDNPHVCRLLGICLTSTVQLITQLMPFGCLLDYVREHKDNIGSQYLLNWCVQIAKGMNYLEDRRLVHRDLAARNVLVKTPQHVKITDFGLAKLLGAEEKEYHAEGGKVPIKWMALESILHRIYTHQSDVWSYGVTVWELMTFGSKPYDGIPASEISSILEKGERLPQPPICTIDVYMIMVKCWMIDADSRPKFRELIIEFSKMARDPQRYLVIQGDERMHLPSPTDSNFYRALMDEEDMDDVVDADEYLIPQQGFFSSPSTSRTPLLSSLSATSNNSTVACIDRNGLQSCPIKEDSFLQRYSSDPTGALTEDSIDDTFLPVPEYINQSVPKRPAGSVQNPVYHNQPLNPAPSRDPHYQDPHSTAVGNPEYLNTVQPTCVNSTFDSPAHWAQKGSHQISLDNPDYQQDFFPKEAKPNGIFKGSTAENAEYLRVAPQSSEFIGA
Sequence of Epidermal growth factor receptor (Homo sapiens, UniProt P00533, L858R/T790M) (P00533 25-1210 T790M/L858R limits assumed): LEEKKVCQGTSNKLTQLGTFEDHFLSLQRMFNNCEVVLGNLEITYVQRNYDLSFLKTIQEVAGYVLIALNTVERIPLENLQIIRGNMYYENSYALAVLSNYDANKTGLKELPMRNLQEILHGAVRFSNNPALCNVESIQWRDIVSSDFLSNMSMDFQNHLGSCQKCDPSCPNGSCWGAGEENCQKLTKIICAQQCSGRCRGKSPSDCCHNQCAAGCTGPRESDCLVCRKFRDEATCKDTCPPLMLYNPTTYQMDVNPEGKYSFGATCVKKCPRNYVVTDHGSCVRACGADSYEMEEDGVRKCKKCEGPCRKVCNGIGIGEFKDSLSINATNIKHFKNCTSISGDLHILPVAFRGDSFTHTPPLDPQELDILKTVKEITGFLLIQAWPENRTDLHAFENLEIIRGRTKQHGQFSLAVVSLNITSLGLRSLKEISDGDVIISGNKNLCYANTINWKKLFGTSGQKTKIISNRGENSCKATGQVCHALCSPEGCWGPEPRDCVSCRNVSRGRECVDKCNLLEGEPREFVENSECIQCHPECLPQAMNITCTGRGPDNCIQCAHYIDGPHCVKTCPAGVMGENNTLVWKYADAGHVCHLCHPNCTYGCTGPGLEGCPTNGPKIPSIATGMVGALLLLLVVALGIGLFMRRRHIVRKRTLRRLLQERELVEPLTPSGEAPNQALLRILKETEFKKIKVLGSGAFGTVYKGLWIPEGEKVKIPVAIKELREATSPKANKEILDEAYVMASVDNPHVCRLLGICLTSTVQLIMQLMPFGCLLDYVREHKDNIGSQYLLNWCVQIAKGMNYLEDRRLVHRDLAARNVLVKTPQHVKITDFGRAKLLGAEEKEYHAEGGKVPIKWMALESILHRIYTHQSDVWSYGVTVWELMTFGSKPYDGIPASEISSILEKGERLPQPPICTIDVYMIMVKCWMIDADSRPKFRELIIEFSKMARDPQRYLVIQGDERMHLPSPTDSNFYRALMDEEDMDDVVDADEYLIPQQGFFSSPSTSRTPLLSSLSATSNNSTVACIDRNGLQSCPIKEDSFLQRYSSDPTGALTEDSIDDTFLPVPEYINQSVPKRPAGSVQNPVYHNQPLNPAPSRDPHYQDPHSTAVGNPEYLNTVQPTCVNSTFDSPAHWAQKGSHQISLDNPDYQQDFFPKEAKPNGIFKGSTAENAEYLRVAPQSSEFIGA

Take `Cc1ccc(Nc2ncnc3cc(OC(C)C)c4c(c23)OCCO4)cc1C#N`: the values for the IC50 in data set [1] and in data set [2] were 416 nM and over 1000 nM, respectively.

In the case of `COc1cc2ncnc(Nc3ccc(F)c(Cl)c3)c2c2c1OCCO2`, the results for the IC50 in data set [1] and in data set [2] were 22.5 nM and 1000 nM, respectively.

Consider `COCCOc1cc2ncnc(Nc3ccc(F)c(C#N)c3)c2c2c1OCCO2`, for which the IC50 in data set [1] is 388 nM; in data set [2], over 1000 nM.

With `CC(C)Oc1cc2ncnc(Nc3ccc(F)c([N+](=O)[O-])c3)c2c2c1OCCO2`, the IC50 was 82.5 nM in data set [1] and over 1000 nM in data set [2].

Consider `CCOc1cc2ncnc(Nc3ccc(C)cc3)c2c2c1OCCO2`, for which the values for the IC50 in data set [1] and in data set [2] were 3.6 nM and 124 nM, respectively. Besides, in data set [3], the CC50 worked out at 27400 nM.

Consider `CCOC(C)Oc1cc2ncnc(Nc3ccc(C)c([N+](=O)[O-])c3)c2c2c1OCCO2` (stereo not given), for which the IC50 is 363 nM in data set [1] and over 1000 nM in data set [2].

`C#Cc1cccc(Nc2ncnc3cc(OC(C)C)c4c(c23)OCCO4)c1`: the IC50 was 23.7 nM in data set [1], 31.4 nM in data set [2], 4540 nM with NCI-H358 and 6080 nM with A549. Also, the CC50 in data set [3] stood at 22100 nM.

In the case of `COCCOc1cc2ncnc(Nc3ccc(F)cc3)c2c2c1OCCO2`, the IC50 in data set [1] is 200 nM; in data set [2], over 1000 nM. For the same molecule, in data set [3], the CC50 amounted to 25900 nM.

For `CC(C)Oc1cc2ncnc(Nc3ccc(F)c(C#N)c3)c2c2c1OCCO2`, the IC50 in data set [1] was 314 nM; in data set [2], over 1000 nM.

For `CCOc1cc2ncnc(Nc3cccc([N+](=O)[O-])c3)c2c2c1OCCO2`, the IC50 in data set [1] came out at 9.7 nM; in data set [2], 71 nM. The cytotoxic concentration (CC50) in data set [3] was 42000 nM.

With `C#Cc1cccc(Nc2ncnc3cc(OCC4CCCO4)c4c(c23)OCCO4)c1` (stereo not given), the figures for the IC50 in data set [1] and in data set [2] were 27.3 nM and 121 nM, respectively. For the same molecule, in data set [3], the CC50 was 40200 nM.

For `FC(F)(F)c1cccc(Nc2ncnc3cc(OCCCN4CCOCC4)c4c(c23)OCCO4)c1`, the IC50 in data set [1] is 97.2 nM.

On to `CCOC(C)Oc1cc2ncnc(Nc3ccc(F)c(C#N)c3)c2c2c1OCCO2` (stereo not given), for which the values for the IC50 in data set [1] and in data set [2] were 352 nM and over 1000 nM, respectively.

As for `COCCOc1cc2ncnc(Nc3ccc(C)c([N+](=O)[O-])c3)c2c2c1OCCO2`, the IC50 was 74.6 nM in data set [1] and over 1000 nM in data set [2].

For the molecule `Clc1cccc(Nc2ncnc3cc(OCCCN4CCOCC4)c4c(c23)OCCO4)c1`, in data set [1], the midpoint of inhibition, the IC50, lay at 21.9 nM.

For the molecule `CCOc1cc2ncnc(Nc3cccc(OC)c3)c2c2c1OCCO2`, the IC50 was 4.4 nM in data set [1] and 70 nM in data set [2]. In addition, in data set [3], the CC50 amounted to 25300 nM.

For `COCCOc1cc2ncnc(Nc3ccc(Cl)c([N+](=O)[O-])c3)c2c2c1OCCO2`, the IC50 was 36.2 nM in data set [1] and over 1000 nM in data set [2].

As for `CCOc1cc2ncnc(Nc3ccc(C)c(Cl)c3)c2c2c1OCCO2`, the IC50 in data set [1] was determined as 6.7 nM; in data set [2], 33.8 nM; in the data set with NCI-H358, 17300 nM; in the data set with A549 it was 11800 nM.

Take `CCOc1cc2ncnc(Nc3ccc(F)c(Cl)c3)c2c2c1OCCO2`: the IC50 in data set [1] is 2 nM; in data set [2], 6.9 nM; with NCI-H358 it was 22700 nM; with A549, 16100 nM. In data set [3], the CC50 amounted to 37000 nM.

Take `Fc1ccc(Nc2ncnc3cc(OC4CCOC4)c4c(c23)OCCO4)cc1Cl` (stereo not given): the IC50 in data set [1] stood at 20.5 nM; in data set [2] it was 151 nM.

Take `COCCOc1cc2ncnc(Nc3ccc(OC)c([N+](=O)[O-])c3)c2c2c1OCCO2`: the IC50 in data set [1] and in data set [2] was over 1000 nM each time.

Regarding `COc1ccc(Nc2ncnc3cc(OC(C)C)c4c(c23)OCCO4)cc1[N+](=O)[O-]`, the concentration for half-maximal inhibition (IC50) in data set [1] and in data set [2] was over 1000 nM each time.

For `C#Cc1cccc(Nc2ncnc3cc(OCC)c4c(c23)OCCO4)c1`, the IC50 is 9.2 nM in data set [1], 21.5 nM in data set [2], 8890 nM with NCI-H358 and 10500 nM with A549. The CC50 in data set [3] was determined as 28200 nM.

For the molecule `C#Cc1cccc(Nc2ncnc3cc(OCCOC)c(OCCOC)cc23)c1` [ERLOTINIB], the IC50 in the data set on NCI-H358 turned out to be 3910 nM; in the data set on A549 it was 7350 nM. Moreover, in data set [3], the CC50 amounted to 28200 nM.

Take `C#Cc1cccc(Nc2ncnc3cc(OCCOC)c4c(c23)OCCO4)c1`: the IC50 in data set [1] was determined as 21 nM; in data set [2] it was 8.1 nM; in the data set with NCI-H358, 7350 nM; with A549, 9930 nM. For the same molecule, the CC50 in data set [3] amounted to 22100 nM.

With `COCCOc1cc2ncnc(Nc3cccc(OC)c3)c2c2c1OCCO2`, the IC50 is 160 nM in data set [1] and 109 nM in data set [2]. In addition, the CC50 in data set [3] was determined as 20800 nM.

`C#Cc1cccc(Nc2ncnc3cc(OC4CCOC4)c4c(c23)OCCO4)c1` (stereo not given): the results for the half-maximal inhibitory concentration (IC50) in data set [1] and in data set [2] were 16.7 nM and 324 nM, respectively.

For `Fc1ccc(Nc2ncnc3cc(OCC4CCCO4)c4c(c23)OCCO4)cc1Cl` (stereo not given), the IC50 in data set [1] was 24.1 nM; in data set [2], over 1000 nM.

Turning to `Cc1ccc(Nc2ncnc3cc(OC(C)C)c4c(c23)OCCO4)cc1[N+](=O)[O-]`, the IC50 in data set [1] is 184 nM; in data set [2], over 1000 nM.

For `Fc1ccc(Nc2ncnc3cc(OCCCN4CCOCC4)c4c(c23)OCCO4)cc1Cl`, the IC50 in data set [1] amounted to 25.9 nM.

With `CC(C)Oc1cc2ncnc(Nc3ccc(Cl)c([N+](=O)[O-])c3)c2c2c1OCCO2`, the IC50 in data set [1] is 103 nM; in data set [2], 1300 nM.

For `C#Cc1cccc(Nc2ncnc3cc(OC(C)COC)c4c(c23)OCCO4)c1` (stereo not given), the values for the 50% inhibitory concentration (IC50) in data set [1] and in data set [2] were 474 nM and 76.1 nM, respectively.

Consider `COCCOc1cc2ncnc(Nc3ccc(F)c(Cl)c3)c2c2c1OCCO2`, for which the IC50 is 13.1 nM in data set [1], 10.5 nM in data set [2], 5930 nM in the data set with NCI-H358 and 13900 nM with A549.

As for `C#Cc1cccc(Nc2ncnc3cc(OC)c4c(c23)OCCO4)c1`, the 50% inhibitory concentration (IC50) in data set [1] is 10.9 nM; in data set [2], over 1000 nM. Moreover, the half-maximal cytotoxic concentration (CC50) in data set [3] was determined as 11700 nM.

For `Fc1ccc(Nc2ncnc3cc(OC4CCOCC4)c4c(c23)OCCO4)cc1Cl`, the IC50 is 58.8 nM in data set [1] and over 1000 nM in data set [2].

With `C#Cc1cccc(Nc2ncnc3cc(OC4CCOCC4)c4c(c23)OCCO4)c1`, the values for the IC50 in data set [1] and in data set [2] were 57.8 nM and over 1000 nM, respectively.

Consider `Fc1cccc(Nc2ncnc3cc(OCCCN4CCOCC4)c4c(c23)OCCO4)c1`, for which, in data set [1], the IC50 stood at 83.9 nM.

Consider `CCOC(C)Oc1cc2ncnc(Nc3ccc(F)c([N+](=O)[O-])c3)c2c2c1OCCO2` (stereo not given), for which the IC50 came to 232 nM in data set [1] and 271 nM in data set [2].

As to `CCOC(C)Oc1cc2ncnc(Nc3ccc(C)c(C#N)c3)c2c2c1OCCO2` (stereo not given), the IC50 in data set [1] and in data set [2] was over 1000 nM throughout.

`CC(C)Oc1cc2ncnc(Nc3ccc(F)c(Cl)c3)c2c2c1OCCO2`: the half-inhibitory concentration (IC50) in data set [1] was 29.1 nM; in data set [2], 46.3 nM; with NCI-H358, 6920 nM; in the data set with A549 it was 11600 nM.

As for `Brc1cccc(Nc2ncnc3cc(OCCCN4CCOCC4)c4c(c23)OCCO4)c1`, the midpoint of inhibition in data set [1], the IC50, lay at 18.5 nM.

For the molecule `CCOC(C)Oc1cc2ncnc(Nc3ccc(OC)c([N+](=O)[O-])c3)c2c2c1OCCO2` (stereo not given), the IC50 in data set [1] and in data set [2] was over 1000 nM each time.

As a reminder, the IC50 is the concentration needed to halve the response being measured. As usually defined, the CC50 is the concentration that lowers cell viability or growth by half.
